Results reported in PMC10436550, “Subacute toxicity evaluations of LPM3480392 in rats, a full µ-opioid receptor biased agonist” (Frontiers in Pharmacology, 2023).

Experiment: Body weight, 4-week subacute toxicity study
Format: in vivo, Sprague Dawley (SD) rats
Procedure: Body weight was recorded twice a week during the dosing phase and then once a week during the recovery phase. Terminal body weight was recorded before each necropsy for calculating the organ weight ratios.

[1] = female rats, 0.6 mg/kg/day, Day 6
[2] = female rats, 0.6 mg/kg/day, Day 9
[3] = female rats, 0.6 mg/kg/day, Day 13
[4] = female rats, 0.6 mg/kg/day, Day 16
[5] = female rats, 0.6 mg/kg/day, Day 20
[6] = female rats, 0.6 mg/kg/day, Day 23
[7] = female rats, 0.6 mg/kg/day, Day 27
[8] = female rats, 0.6 mg/kg/day, Prior to 1st dosing
[9] = female rats, 0.6 mg/kg/day, Recovery day 5
[10] = female rats, 0.6 mg/kg/day, Recovery day 12
[11] = female rats, 0.6 mg/kg/day, Recovery day 19
[12] = female rats, 0.6 mg/kg/day, Recovery day 26
[13] = female rats, 1.2 mg/kg/day, Day 6
[14] = female rats, 1.2 mg/kg/day, Day 9
[15] = female rats, 1.2 mg/kg/day, Day 13
[16] = female rats, 1.2 mg/kg/day, Day 16
[17] = female rats, 1.2 mg/kg/day, Day 20
[18] = female rats, 1.2 mg/kg/day, Day 23
[19] = female rats, 1.2 mg/kg/day, Day 27
[20] = female rats, 1.2 mg/kg/day, Prior to 1st dosing
[21] = female rats, 1.2 mg/kg/day, Recovery day 5
[22] = female rats, 1.2 mg/kg/day, Recovery day 12
[23] = female rats, 1.2 mg/kg/day, Recovery day 19
[24] = female rats, 1.2 mg/kg/day, Recovery day 26
[25] = female rats, 2.4 mg/kg/day, Day 6
[26] = female rats, 2.4 mg/kg/day, Day 9
[27] = female rats, 2.4 mg/kg/day, Day 13
[28] = female rats, 2.4 mg/kg/day, Day 16
[29] = female rats, 2.4 mg/kg/day, Day 20
[30] = female rats, 2.4 mg/kg/day, Day 23
[31] = female rats, 2.4 mg/kg/day, Day 27
[32] = female rats, 2.4 mg/kg/day, Prior to 1st dosing
[33] = female rats, 2.4 mg/kg/day, Recovery day 5
[34] = female rats, 2.4 mg/kg/day, Recovery day 12
[35] = female rats, 2.4 mg/kg/day, Recovery day 19
[36] = female rats, 2.4 mg/kg/day, Recovery day 26
[37] = male rats, 0.6 mg/kg/day, Day 6
[38] = male rats, 0.6 mg/kg/day, Day 9
[39] = male rats, 0.6 mg/kg/day, Day 13
[40] = male rats, 0.6 mg/kg/day, Day 16
[41] = male rats, 0.6 mg/kg/day, Day 20
[42] = male rats, 0.6 mg/kg/day, Day 23
[43] = male rats, 0.6 mg/kg/day, Day 27
[44] = male rats, 0.6 mg/kg/day, Prior to 1st dosing
[45] = male rats, 0.6 mg/kg/day, Recovery day 5
[46] = male rats, 0.6 mg/kg/day, Recovery day 12
[47] = male rats, 0.6 mg/kg/day, Recovery day 19
[48] = male rats, 0.6 mg/kg/day, Recovery day 26
[49] = male rats, 1.2 mg/kg/day, Day 6
[50] = male rats, 1.2 mg/kg/day, Day 9
[51] = male rats, 1.2 mg/kg/day, Day 13
[52] = male rats, 1.2 mg/kg/day, Day 16
[53] = male rats, 1.2 mg/kg/day, Day 20
[54] = male rats, 1.2 mg/kg/day, Day 23
[55] = male rats, 1.2 mg/kg/day, Day 27
[56] = male rats, 1.2 mg/kg/day, Prior to 1st dosing
[57] = male rats, 1.2 mg/kg/day, Recovery day 5
[58] = male rats, 1.2 mg/kg/day, Recovery day 12
[59] = male rats, 1.2 mg/kg/day, Recovery day 19
[60] = male rats, 1.2 mg/kg/day, Recovery day 26
[61] = male rats, 2.4 mg/kg/day, Day 6
[62] = male rats, 2.4 mg/kg/day, Day 9
[63] = male rats, 2.4 mg/kg/day, Day 13
[64] = male rats, 2.4 mg/kg/day, Day 16
[65] = male rats, 2.4 mg/kg/day, Day 20
[66] = male rats, 2.4 mg/kg/day, Day 23
[67] = male rats, 2.4 mg/kg/day, Day 27
[68] = male rats, 2.4 mg/kg/day, Prior to 1st dosing
[69] = male rats, 2.4 mg/kg/day, Recovery day 5
[70] = male rats, 2.4 mg/kg/day, Recovery day 12
[71] = male rats, 2.4 mg/kg/day, Recovery day 19
[72] = male rats, 2.4 mg/kg/day, Recovery day 26

Fc1ccc([C@]2(CCNCc3cccc(Cl)c3)CCO[C@]3(CCOC3)C2)nc1 [LPM3480392]
Body weight [1]: 194.0 ± 11.4 g | Body weight change rate [1]: 4.64% | Body weight [2]: 201.1 ± 13.7 g | Body weight change rate [2]: 5.62% | Body weight [3]: 209.5 ± 13.4 g | Body weight change rate [3]: 7.05% | Body weight [4]: 214.4 ± 13.2 g | Body weight change rate [4]: 6.19% | Body weight [5]: 224.2 ± 15.1 g | Body weight change rate [5]: 6.91% | Body weight [6]: 228.1 ± 15.3 g | Body weight change rate [6]: 5.65% | Body weight [7]: 236.2 ± 15.3 g | Body weight change rate [7]: 8.05% | Body weight [8]: 176.9 ± 7.3 g | Body weight change rate [8]: −0.67% | Body weight [9]: 243.5 ± 9.3 g | Body weight change rate [9]: 5.96% | Body weight [10]: 251.6 ± 10.2 g | Body weight change rate [10]: 6.38% | Body weight [11]: 258.8 ± 12.5 g | Body weight change rate [11]: 2.70% | Body weight [12]: 265.5 ± 15.7 g | Body weight change rate [12]: 3.11% | Body weight [13]: 194.9 ± 10.5 g | Body weight change rate [13]: 5.12% | Body weight [14]: 200.1 ± 12.1 g | Body weight change rate [14]: 5.09% | Body weight [15]: 215.3 ± 11.3 g | Body weight change rate [15]: 10.02% | Body weight [16]: 218.9 ± 12.3 g | Body weight change rate [16]: 8.42% | Body weight [17]: 221.5 ± 14.8 g | Body weight change rate [17]: 5.63% | Body weight [18]: 232.4 ± 16.4 g | Body weight change rate [18]: 7.64% | Body weight [19]: 237.2 ± 15.4 g | Body weight change rate [19]: 8.51% | Body weight [20]: 175.3 ± 7.7 g | Body weight change rate [20]: −1.57% | Body weight [21]: 237.7 ± 13.0 g | Body weight change rate [21]: 3.44% | Body weight [22]: 244.8 ± 13.2 g | Body weight change rate [22]: 3.51% | Body weight [23]: 259.9 ± 16.5 g | Body weight change rate [23]: 3.13% | Body weight [24]: 261.8 ± 22.7 g | Body weight change rate [24]: 1.67% | Body weight [25]: 194.7 ± 11.9 g | Body weight change rate [25]: 5.02% | Body weight [26]: 198.8 ± 14.7 g | Body weight change rate [26]: 4.41% | Body weight [27]: 211.2 ± 13.0 g | Body weight change rate [27]: 7.92% | Body weight [28]: 209.1 ± 13.2 g | Body weight change rate [28]: 3.57% | Body weight [29]: 220.8 ± 15.5 g | Body weight change rate [29]: 5.29% | Body weight [30]: 221.7 ± 19.8 g | Body weight change rate [30]: 2.69% | Body weight [31]: 230.9 ± 19.3 g | Body weight change rate [31]: 5.63% | Body weight [32]: 179.1 ± 8.3 g | Body weight change rate [32]: 0.56% | Body weight [33]: 230.1 ± 19.1 g | Body weight change rate [33]: 0.13% | Body weight [34]: 241.1 ± 21.0 g | Body weight change rate [34]: 1.95% | Body weight [35]: 253.1 ± 25.8 g | Body weight change rate [35]: 0.44% | Body weight [36]: 261.1 ± 25.5 g | Body weight change rate [36]: 1.40% | Body weight [37]: 247.1 ± 9.6 g | Body weight change rate [37]: 1.31% | Body weight [38]: 268.8 ± 11.6 g | Body weight change rate [38]: 2.32% | Body weight [39]: 292.6 ± 13.5 g | Body weight change rate [39]: 0.62% | Body weight [40]: 300.8 ± 12.5 g | Body weight change rate [40]: −2.12% | Body weight [41]: 321.4 ± 15.8 g | Body weight change rate [41]: −0.22% | Body weight [42]: 332.6 ± 17.3 g | Body weight change rate [42]: −0.33% | Body weight [43]: 349.9 ± 20.1 g | Body weight change rate [43]: −0.20% | Body weight [44]: 213.2 ± 11.1 g | Body weight change rate [44]: 0.66% | Body weight [45]: 367.7 ± 23.5 g | Body weight change rate [45]: −4.86% | Body weight [46]: 395.5 ± 24.5 g | Body weight change rate [46]: −4.63% | Body weight [47]: 415.6 ± 25.4 g | Body weight change rate [47]: −5.29% | Body weight [48]: 442.1 ± 24.4 g | Body weight change rate [48]: −4.22% | Body weight [49]: 243.6 ± 12.3 g | Body weight change rate [49]: −0.12% | Body weight [50]: 247.3 ± 10.6 g | Body weight change rate [50]: −5.86% | Body weight [51]: 281.5 ± 15.7 g | Body weight change rate [51]: −3.20% | Body weight [52]: 297.1 ± 19.6 g | Body weight change rate [52]: −3.32% | Body weight [53]: 313.4 ± 22.6 g | Body weight change rate [53]: −2.70% | Body weight [54]: 325.9 ± 21.5 g | Body weight change rate [54]: −2.34% | Body weight [55]: 339.3 ± 23.2 g | Body weight change rate [55]: −3.22% | Body weight [56]: 213.2 ± 9.4 g | Body weight change rate [56]: 0.66% | Body weight [57]: 361.2 ± 14.2 g | Body weight change rate [57]: −6.55% | Body weight [58]: 388.0 ± 14.5 g | Body weight change rate [58]: −6.44% | Body weight [59]: 416.4 ± 19.3 g | Body weight change rate [59]: −5.10% | Body weight [60]: 444.3 ± 23.9 g | Body weight change rate [60]: −3.75% | Body weight [61]: 234.0 ± 21.8 g | Body weight change rate [61]: −4.06% | Body weight [62]: 249.9 ± 31.9 g | Body weight change rate [62]: −4.87% | Body weight [63]: 272.4 ± 27.9 g | Body weight change rate [63]: −6.33% | Body weight [64]: 281.1 ± 31.2 g | Body weight change rate [64]: −8.53% | Body weight [65]: 297.6 ± 36.8 g | Body weight change rate [65]: −7.61% | Body weight [66]: 299.3 ± 36.1 g | Body weight change rate [66]: −10.31% | Body weight [67]: 315.4 ± 36.4 g | Body weight change rate [67]: −10.04% | Body weight [68]: 213.9 ± 12.9 g | Body weight change rate [68]: 0.99% | Body weight [69]: 329.2 ± 48.5 g | Body weight change rate [69]: −14.83% | Body weight [70]: 365.9 ± 50.0 g | Body weight change rate [70]: −11.77% | Body weight [71]: 386.7 ± 51.8 g | Body weight change rate [71]: −11.87% | Body weight [72]: 413.2 ± 56.3 g | Body weight change rate [72]: −10.49%
